Data reported in patent publication US11944632B2, “Use of sodium dichloroisocyanurate (NaDCC) and a pharmaceutical formulation prepared therefrom” (SAVA HEALTHCARE LTD, priority 2020, dated 2024).

Experiments:
[1] = test system: Escherichia coli; conditions: cited from earlier work
[2] = test system: Bacterial membrane; conditions: cited from earlier work
[3] = test system: Aspergillus sps; experiment: Susceptibility of fungus isolated from Salacia reticulata to NaDCC; type: cell-based
Experimental: (§1) The bacteria (Bacillus licheniformis, and Bacillus paralicheniformis) and fungus (Aspergillus sps) isolated from the Salacia reticulata and bacteria Bacillus licheniformis isolated from Garcinia cambogia extract was tested for susceptibility for the sensitivity towards NaDCC.

[4] = Cyanuric acid and free available chlorine in lung homogenate after NaDCC DPI; conditions: administered as a DPI
Source text: Further, the so obtained NaDCC DPI was clinically assessed by determining the amount of cyanuric acid in the tissues.

[5] = test system: COVID-19 virus; experiment: Anti-COVID activity: inhibition of virus replication; conditions: Severe acute respiratory syndrome coronavirus 2, read-out: Inhibition of the virus replication
[6] = test system: 29 Gram-positive and 29 Gram-negative bacteria, as well as 66 fungi; conditions: independent of pH and temperature; cited from earlier work
[7] = Stability of NaDCC solution (HDPE bottle); conditions: tables 6 to 9
[8] = test system: mammalian cell vero6; experiment: Anti-COVID activity: cell survival (cytotoxicity); conditions: vero6 cells infected with COVID-19 virus
[9] = test system: Bacillus licheniformis; experiment: Susceptibility of bacteria isolated from Garcinia cambogia extract to NaDCC; type: cell-based
Experimental: as §1

[10] = test system: microbial load of Salacia extract; experiment: % microbial load reduction in Salacia extract; conditions: for Total cfu/g: untreated 21000
Source text: Example 4: % Microbial Load Reduction in Ayurvedic Herbs and Extracts by Using Sodium Dichloroisocyanurate (NaDCC)

[11] = test system: Bacillus licheniformis, and Bacillus paralicheniformis; experiment: Susceptibility of bacteria isolated from Salacia reticulata to NaDCC; type: cell-based
Experimental: as §1

[12] = test system: coliforms and E. coli; conditions: 25 mg/ml, raw river water; cited from earlier work
[13] = temperate and tropical climates; cited from earlier work
[14] = NaDCC 0.05% to 5% mixed with Salacia extract (inference)

Structure (SMILES) | HOCl concentration that completely inhibited cell division ([1]; Escherichia coli) [µM] | IC50 ([1]; read-out: HOCl required for 50% inhibition of bacterial growth, 5×10^8 Escherichia coli/ml) [µM] | Concentration below which bacterial membrane disruption and release of cell contents is not observed [2] | Anti-fungal activity (FIG. 1) [3] | Metabolism / tissue accumulation [4] | inhibition at 600 ppm [5] [%] | Antimicrobial activity [6] | Stability in acetic acid and cyanuric acid as a solution (inference) [7] | Survival of cell (FIG. 3B) [8] | Antibacterial activity (FIG. 2) [9] | Total cfu/g ([10]; 0.02 g NaDCC in 10 g Salacia extract (0.2%), batch RDP/SR/073) [cfu/g] | Total cfu/g ([10]; 0.04 g NaDCC in 10 g Salacia extract (0.4%), batch RDP/SR/074) [cfu/g] | % microbial reduction ([10]; 0.2% of input extract, batch RDP/SR/073) [%] | % microbial reduction ([10]; 0.4% of input extract, batch RDP/SR/074) [%] | Reduction in bacterial counts [10, 14] [logs] | Reduction of bacterial load [10, 14] [%] | Antibacterial activity (FIG. 1) [11] | Reduction of viable bacteria [12] | Shelf life [13] [years]
OCl [HOCl, Hypochlorous acid] | 50 | 20 | below 5 mM |  |  |  |  |  |  |  |  |  |  |  |  |  |  |  | 
O=c1[n-]c(=O)n(Cl)c(=O)n1Cl.[Na+] [NaDCC, Sodium 3,5-dichloro-2,4,6-trioxo-1,3,5-triazinan-1-ide] |  |  |  | anti-fungal activity | metabolized fast with a short half-life and not accumulated in tissues | > 100 | effective | stable | increase the survival of cell | effective antibacterial activity | <10 | <10 | >99 | >99 | 4 | 99.99 | effective antibacterial activity | 1.8-2.8 logs | 5
